Laboratory results: US20130011333A1, “Methods and Compositions for Nanoparticle-Mediated Cancer Cell-Targeted Delivery” (Board of Regents, The University of Texas System, priority 2010, published 2013)

Columns and labels:
p53 = p53 (Homo sapiens, UniProt P04637); settings: reference [28]; cited from earlier work
p73 = target: T1, p73 (Homo sapiens, UniProt O15350); settings: reference [28]; cited from earlier work
T1 sequence (O15350 1-499 isoform O15350-2): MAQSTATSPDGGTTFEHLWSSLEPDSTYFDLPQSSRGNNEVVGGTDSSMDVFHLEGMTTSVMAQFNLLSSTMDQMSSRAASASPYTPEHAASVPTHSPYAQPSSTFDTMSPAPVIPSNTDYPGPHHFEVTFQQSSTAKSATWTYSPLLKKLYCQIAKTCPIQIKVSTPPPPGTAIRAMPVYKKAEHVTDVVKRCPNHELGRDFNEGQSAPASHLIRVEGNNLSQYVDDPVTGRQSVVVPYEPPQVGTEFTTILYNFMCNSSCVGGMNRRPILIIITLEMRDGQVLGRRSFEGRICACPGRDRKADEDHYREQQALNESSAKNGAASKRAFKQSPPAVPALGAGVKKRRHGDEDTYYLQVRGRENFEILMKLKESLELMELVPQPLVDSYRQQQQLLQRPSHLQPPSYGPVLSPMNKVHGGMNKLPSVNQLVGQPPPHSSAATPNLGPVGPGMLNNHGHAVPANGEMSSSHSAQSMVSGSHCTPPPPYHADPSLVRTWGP

MDA-MB-231 cells [1] = test: Colony formation assay; assay type: cell-based, human; settings: MDA-MB-231 cells expressing high level of mutant p53, transfected vector
MCF-10A cells [2] = test: FACS (flow cytometry) analysis after irradiation; assay type: cell-based, human; settings: MCF-10A cells expressing p53/p73OD, 4Gy, 24 h
Procedure: (§1) A. Cells as in FIG. 6 were subject to Western analysis using the indicated antibodies. P53/p73OD expressing MDA-MB-231 or MCF-10A cells were either mock or irradiated with 4Gy. The cells were either harvested at 6 h post-IR for Western analysis (B) or at 24 h for FACS analysis (C). The results are mean±SE from three independent experiments.
(§2) To understand potential mechanisms underlying the differential sensitivity of cancer cells and non-transformed cells to p53/p73OD expression, p53 activity was examined further. […] The result is in line with the notion that cancer cells, but not normal cells, harbor strong intrinsic p53-activating signals. The low activity of p53/p73OD in MCF-10A cells led to the question of whether the chimera could be activated by exogenous stimuli such as radiation.

MDA-MB-231 cells [3] = test: FACS (flow cytometry) analysis after irradiation; assay type: cell-based, human; settings: MDA-MB-231 cells expressing p53/p73OD, 4Gy, 24 h
Procedure: as §1, §2

MDA-MB-231 cells [4] = test: Western analysis of p53 pathway; assay type: cell-based, human
Procedure: After selection with puromycin, the cells were subjected to colony formation assay. The data are means±SE from three separate experiments (A). Western analysis was performed with cells that were harvested at 48 h pos-selection and probed using the indicated antibodies (B).
as §1
The present invention utilizes a p53/p73 chimera to circumvent this OD-mediated inactivation by mutant p53. A series of p53/p73 chimeric proteins were generated by swapping corresponding domains of p53 and p73 [28]. […] A crystal structure study has confirmed this observation. […] This is of particular significance considering the dominant-negative and gain-of-function activities of mutant p53 that are primarily responsible for the oncogenic function.
as §2

MCF-10A cells [5] = test: Colony formation assay; assay type: cell-based, human; settings: expression level that markedly inhibits MDA-MB-231 growth
Procedure: FIG. 6. MCF-10A cells are less sensitive to a moderate level of p53/p73OD expression. MCF-10A cells with MDA-MB-231 cells as controls were transfected with the indicated vectors (0.5 μg) and subjected to colony formation assay as in FIG. 5. Western blot was performed in parallel to determine the level of p53/p73OD expression.
As a result, the response of normal cells to a moderate level of p53/p73OD expression is likely to differ from that of cancer cells. This was tested by comparing MDA-MB-231 cells and MCF-10A cells (a non-transformed human breast epithelial cell line), using a similar colony formation assay.

[6] = system: MDA-MB-231 cells stably expressing Pg13-GFP; test: Pg13-GFP reporter of p53 activation; assay type: cell-based, human; settings: delivered with GLU-PEG-PEI, 0.2 μg DNA/60-mm dish, 24 h
Procedure: The cells were fixed 24 h later using 2% formalin and stained with DAPI dye. The top panels show the GFP expression. The bottom panels show cell nuclei detected by DAPI staining.
To facilitate the detection of p53 activation in situ, a Pg13-GFP system was developed in which 13 repeats of a canonical p53 responsive element were cloned to drive the expression of GFP protein. An absolute dependency of the GFP expression on p53 was verified with p53-null H1299 cells. […] The cells were fixed 24 h later.

MCF-10A cells [7] = test: Western analysis of p53 pathway; assay type: cell-based, human; settings: 4Gy, 6 h post-IR
Procedure: as §1, §2

Sequence of p53 (P04637 whole entry): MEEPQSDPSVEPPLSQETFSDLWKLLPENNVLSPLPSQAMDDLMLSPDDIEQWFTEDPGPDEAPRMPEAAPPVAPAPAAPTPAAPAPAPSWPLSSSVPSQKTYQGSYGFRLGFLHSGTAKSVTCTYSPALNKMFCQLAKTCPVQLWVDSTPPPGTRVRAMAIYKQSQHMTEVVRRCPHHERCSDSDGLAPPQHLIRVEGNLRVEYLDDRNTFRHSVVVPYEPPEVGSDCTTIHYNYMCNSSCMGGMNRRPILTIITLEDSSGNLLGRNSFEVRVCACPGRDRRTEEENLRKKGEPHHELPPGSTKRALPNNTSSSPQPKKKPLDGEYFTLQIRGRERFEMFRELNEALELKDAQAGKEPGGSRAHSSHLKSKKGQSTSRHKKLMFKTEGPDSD

p53/p73OD: human p53 protein in which amino acids 318 to 364 are replaced with amino acids 346-390 of p73 (the oligomerization domain)
binding to p53 (p53): does not bind
association with p73 (p73): associates
cell growth (colony formation) (MDA-MB-231 cells [1]): effectively inhibited cell growth
G1 cell cycle arrest after IR (MCF-10A cells [2]): significant G1 cell cycle arrest
G1 cell cycle arrest after IR (MDA-MB-231 cells [3]): little G1 cell cycle arrest
sub-G1, or apoptotic population after IR (MDA-MB-231 cells [3]): marked increase
PUMA, MDM2 and p21 expression (MDA-MB-231 cells [4]): robust induction
phosphorylation after IR (MDA-MB-231 cells [4]; 4Gy, 6 h post-IR): markedly induced
mutant p53 protein level (MDA-MB-231 cells [4]; Western, 48 h post-selection): significant decrease
phosphorylation (anti-Sp15p53 Western) (MDA-MB-231 cells [4]; no irradiation): phosphorylated
cell growth (colony formation) (MCF-10A cells [5]): did not significantly impact the growth
p53 transcription activity (GFP expression) [6]: increase of p53 transcription activity
phosphorylation after IR (MCF-10A cells [7]): markedly induced
